Measurements reported in patent publication US7928060B2, “Amylin family polypeptide-6 (AFP-6) analogs and methods of making and using them” (Amylin Pharmaceuticals, Inc., priority 2004, dated 2011).
Bridge positions count the residues as written; N and C are the ends. Peptide text beside a SMILES is read from it.

Assays:
calcitonin receptor = biological target: T1, calcitonin receptor (Rattus norvegicus, UniProt P32214); assay: calcitonin receptor binding assay (rCalcitonin RBA); details: Table 6; read-out: CT receptor binding
T1 sequence (P32214 25-516): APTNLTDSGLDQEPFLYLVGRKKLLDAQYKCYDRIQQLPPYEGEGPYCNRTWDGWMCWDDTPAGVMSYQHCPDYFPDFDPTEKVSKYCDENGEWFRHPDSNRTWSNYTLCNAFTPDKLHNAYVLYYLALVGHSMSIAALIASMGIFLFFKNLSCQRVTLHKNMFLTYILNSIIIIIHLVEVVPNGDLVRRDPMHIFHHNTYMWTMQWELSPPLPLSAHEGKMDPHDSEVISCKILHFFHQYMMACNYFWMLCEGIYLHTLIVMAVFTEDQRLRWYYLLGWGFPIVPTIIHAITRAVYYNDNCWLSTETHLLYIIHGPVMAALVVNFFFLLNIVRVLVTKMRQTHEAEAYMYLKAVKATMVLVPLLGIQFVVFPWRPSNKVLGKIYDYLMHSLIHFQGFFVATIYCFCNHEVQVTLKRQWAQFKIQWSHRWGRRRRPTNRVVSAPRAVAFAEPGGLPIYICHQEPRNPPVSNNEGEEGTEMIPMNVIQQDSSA

adrenomedullin receptor = adrenomedullin receptor (Homo sapiens, UniProt O60895+Q16602); assay: adrenomedullin (ADM) receptor binding assay; details: Table 6
adrenomedullin receptor, sequence (Q16602 23-461): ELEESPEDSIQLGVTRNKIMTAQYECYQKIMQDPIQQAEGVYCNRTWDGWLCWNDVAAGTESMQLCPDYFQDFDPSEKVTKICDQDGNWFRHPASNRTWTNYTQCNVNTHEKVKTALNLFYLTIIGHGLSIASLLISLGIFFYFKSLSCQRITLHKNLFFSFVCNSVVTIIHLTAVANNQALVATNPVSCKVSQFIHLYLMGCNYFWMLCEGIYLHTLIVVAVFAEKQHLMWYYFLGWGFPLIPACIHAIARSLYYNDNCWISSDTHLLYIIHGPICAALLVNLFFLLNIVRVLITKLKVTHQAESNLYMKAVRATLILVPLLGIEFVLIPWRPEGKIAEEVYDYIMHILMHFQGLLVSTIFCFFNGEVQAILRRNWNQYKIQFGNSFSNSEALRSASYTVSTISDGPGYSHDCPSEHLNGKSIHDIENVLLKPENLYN
adrenomedullin receptor, sequence (O60895 43-175): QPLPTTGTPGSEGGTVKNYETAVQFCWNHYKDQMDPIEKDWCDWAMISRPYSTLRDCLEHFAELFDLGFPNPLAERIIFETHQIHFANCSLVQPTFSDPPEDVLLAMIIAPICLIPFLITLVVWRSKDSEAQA

IC50 (calcitonin receptor) [nM]	IC50 (adrenomedullin receptor) [nM]	Structure (SMILES)
55	7.1	CSCC[C@H](NC(=O)[C@H](CC(C)C)NC(=O)[C@H](CCC(N)=O)NC(=O)[C@H](Cc1c[nH]c2ccccc12)NC(=O)[C@H](CC(C)C)NC(=O)[C@H](CCCNC(=N)N)NC(=O)[C@H](Cc1c[nH]cn1)NC(=O)[C@H](CO)NC(=O)[C@H](CC(C)C)NC(=O)[C@H](CC(N)=O)NC(=O)[C@H](CCC(N)=O)NC(=O)[C@@H](NC(=O)[C@H](CCC(N)=O)NC(=O)[C@@H]1CSSC[C@H](NC(=O)CNC(=O)[C@@H](NC(=O)[C@@H](N)CCCNC(=N)N)C(C)C)C(=O)N[C@@H](C(C)C)C(=O)N[C@@H](CC(C)C)C(=O)NCC(=O)N[C@@H]([C@@H](C)O)C(=O)N1)C(C)C)C(=O)NCC(=O)N1CCC[C@H]1C(=O)N[C@@H](C)C(=O)NCC(=O)N[C@@H](CCCNC(=N)N)C(=O)N[C@@H](CCC(N)=O)C(=O)N[C@@H](CC(=O)O)C(=O)N[C@@H](CO)C(=O)N[C@@H](C)C(=O)N1CCC[C@H]1C(=O)N[C@H](C(=O)N[C@@H](CC(=O)O)C(=O)N1CCC[C@H]1C(=O)N[C@@H](CO)C(=O)N[C@@H](CO)C(=O)N1CCC[C@H]1C(=O)N[C@@H](Cc1c[nH]cn1)C(=O)N[C@@H](CO)C(=O)N[C@@H](Cc1ccc(O)cc1)C(N)=O)C(C)C [compound 10]
27	11	CSCC[C@H](NC(=O)[C@H](CC(C)C)NC(=O)[C@H](CCC(N)=O)NC(=O)[C@H](Cc1c[nH]c2ccccc12)NC(=O)[C@H](CC(C)C)NC(=O)[C@H](CCCNC(=N)N)NC(=O)[C@H](Cc1c[nH]cn1)NC(=O)[C@H](CO)NC(=O)[C@H](CC(C)C)NC(=O)[C@H](CC(N)=O)NC(=O)[C@H](CCC(N)=O)NC(=O)[C@@H](NC(=O)[C@H](CCC(N)=O)NC(=O)[C@@H]1CSSC[C@H](NC(=O)CN)C(=O)N[C@@H](C(C)C)C(=O)N[C@@H](CC(C)C)C(=O)NCC(=O)N[C@@H]([C@@H](C)O)C(=O)N1)C(C)C)C(=O)NCC(=O)N1CCC[C@H]1C(=O)N[C@@H](C)C(=O)NCC(=O)N[C@@H](CCCNC(=N)N)C(=O)N[C@@H](CCC(N)=O)C(=O)N[C@@H](CC(=O)O)C(=O)N[C@@H](CO)C(=O)N[C@@H](C)C(=O)N1CCC[C@H]1C(=O)N[C@H](C(=O)N[C@@H](CC(=O)O)C(=O)N1CCC[C@H]1C(=O)N[C@@H](CO)C(=O)N[C@@H](CO)C(=O)N1CCC[C@H]1C(=O)N[C@@H](Cc1c[nH]cn1)C(=O)N[C@@H](CO)C(=O)N[C@@H](Cc1ccc(O)cc1)C(N)=O)C(C)C [compound 11] (H-GCVLGTCQVQNLSHRLWQLMGPAGRQDSAPVDPSSPHSY-NH2; disulfide 2-7 (inferred); N-terminus assumed)
198	18	CSCC[C@H](NC(=O)[C@H](CC(C)C)NC(=O)[C@H](CCC(N)=O)NC(=O)[C@H](Cc1c[nH]c2ccccc12)NC(=O)[C@H](CC(C)C)NC(=O)[C@H](CCCNC(=N)N)NC(=O)[C@H](Cc1c[nH]cn1)NC(=O)[C@H](CO)NC(=O)[C@H](CC(C)C)NC(=O)[C@H](CC(N)=O)NC(=O)[C@H](CCC(N)=O)NC(=O)[C@@H](NC(=O)[C@H](CCC(N)=O)NC(=O)[C@@H]1CSSC[C@H](N)C(=O)N[C@@H](C(C)C)C(=O)N[C@@H](CC(C)C)C(=O)NCC(=O)N[C@@H]([C@@H](C)O)C(=O)N1)C(C)C)C(=O)NCC(=O)N1CCC[C@H]1C(=O)N[C@@H](C)C(=O)NCC(=O)N[C@@H](CCCNC(=N)N)C(=O)N[C@@H](CCC(N)=O)C(=O)N[C@@H](CC(=O)O)C(=O)N[C@@H](CO)C(=O)N[C@@H](C)C(=O)N1CCC[C@H]1C(=O)N[C@H](C(=O)N[C@@H](CC(=O)O)C(=O)N1CCC[C@H]1C(=O)N[C@@H](CO)C(=O)N[C@@H](CO)C(=O)N1CCC[C@H]1C(=O)N[C@@H](Cc1c[nH]cn1)C(=O)N[C@@H](CO)C(=O)N[C@@H](Cc1ccc(O)cc1)C(N)=O)C(C)C [compound 12] (H-CVLGTCQVQNLSHRLWQLMGPAGRQDSAPVDPSSPHSY-NH2; disulfide 1-6 (inferred); N-terminus assumed)
> 1000	304	CC(C)C[C@H](NC(=O)[C@H](CCC(N)=O)NC(=O)[C@H](C)NC(=O)[C@H](CCC(N)=O)NC(=O)[C@@H](N)[C@@H](C)O)C(=O)N[C@@H](CC(C)C)C(=O)N[C@@H](CCCNC(=N)N)C(=O)N[C@H](C(=O)NCC(=O)N[C@H]1CSSC[C@@H](C(=O)N[C@@H](CCC(N)=O)C(=O)N[C@H](C(=O)N[C@@H](CCC(N)=O)C(=O)N[C@@H](CC(N)=O)C(=O)N[C@@H](CC(C)C)C(=O)N[C@@H](CO)C(=O)N[C@@H](Cc2c[nH]cn2)C(=O)N[C@@H](CCCNC(=N)N)C(=O)N[C@@H](CC(C)C)C(=O)N[C@@H](Cc2c[nH]c3ccccc23)C(=O)N[C@@H](CCC(N)=O)C(=O)N[C@@H](CC(C)C)C(=O)N[C@@H](CC(=O)O)C(=O)N[C@@H](CO)C(=O)N[C@@H](C)C(=O)N2CCC[C@H]2C(=O)N[C@H](C(=O)N[C@@H](CC(=O)O)C(=O)N2CCC[C@H]2C(=O)N[C@@H](CO)C(=O)N[C@@H](CO)C(=O)N2CCC[C@H]2C(=O)N[C@@H](Cc2c[nH]cn2)C(=O)N[C@@H](CO)C(=O)N[C@@H](Cc2ccc(O)cc2)C(N)=O)C(C)C)C(C)C)NC(=O)[C@H]([C@@H](C)O)NC(=O)CNC(=O)[C@H](CC(C)C)NC(=O)[C@H](C(C)C)NC1=O)C(C)C [compound 17] (H-TQAQLLRVGCVLGTCQVQNLSHRLWQLDSAPVDPSSPHSY-NH2; disulfide 10-15 (inferred); N-terminus assumed)
24	≥ 1000	CC(C)C[C@H](NC(=O)[C@H](CCC(N)=O)NC(=O)[C@H](Cc1c[nH]c2ccccc12)NC(=O)[C@H](CC(C)C)NC(=O)[C@H](CCCNC(=N)N)NC(=O)[C@H](Cc1c[nH]cn1)NC(=O)[C@H](CO)NC(=O)[C@H](CC(C)C)NC(=O)[C@H](CC(N)=O)NC(=O)[C@H](CCC(N)=O)NC(=O)[C@@H](NC(=O)[C@H](CCC(N)=O)NC(=O)[C@@H]1CSSC[C@H](NC(=O)CNC(=O)[C@@H](N)C(C)C)C(=O)N[C@@H](C(C)C)C(=O)N[C@@H](CC(C)C)C(=O)NCC(=O)N[C@@H]([C@@H](C)O)C(=O)N1)C(C)C)C(=O)N[C@@H](CCCNC(=N)N)C(=O)N[C@@H](CCC(N)=O)C(=O)N[C@@H](CC(=O)O)C(=O)N[C@@H](CO)C(=O)N[C@@H](C)C(=O)N1CCC[C@H]1C(=O)N[C@H](C(=O)N[C@@H](CC(=O)O)C(=O)N1CCC[C@H]1C(=O)N[C@@H](CO)C(=O)N[C@@H](CO)C(=O)N1CCC[C@H]1C(=O)N[C@@H](Cc1c[nH]cn1)C(=O)N[C@@H](CO)C(=O)N[C@@H](Cc1ccc(O)cc1)C(N)=O)C(C)C [compound 18] (H-VGCVLGTCQVQNLSHRLWQLRQDSAPVDPSSPHSY-NH2; disulfide 3-8 (inferred); N-terminus assumed)
247	≥ 1000	CC(C)C[C@H](NC(=O)[C@H](CCC(N)=O)NC(=O)[C@H](Cc1c[nH]c2ccccc12)NC(=O)[C@H](CC(C)C)NC(=O)[C@H](CCCNC(=N)N)NC(=O)[C@H](Cc1c[nH]cn1)NC(=O)[C@H](CO)NC(=O)[C@H](CC(C)C)NC(=O)[C@H](CC(N)=O)NC(=O)[C@H](CCC(N)=O)NC(=O)[C@@H](NC(=O)[C@H](CCC(N)=O)NC(=O)[C@@H]1CSSC[C@H](N)C(=O)N[C@@H](C(C)C)C(=O)N[C@@H](CC(C)C)C(=O)NCC(=O)N[C@@H]([C@@H](C)O)C(=O)N1)C(C)C)C(=O)N[C@@H](CCCNC(=N)N)C(=O)N[C@@H](CCC(N)=O)C(=O)N[C@@H](CCC(=O)O)C(=O)N[C@@H](CO)C(=O)N[C@@H](C)C(=O)N1CCC[C@H]1C(=O)N[C@H](C(=O)N[C@@H](CCC(=O)O)C(=O)N1CCC[C@H]1C(=O)N[C@@H](CO)C(=O)N[C@@H](CO)C(=O)N1CCC[C@H]1C(=O)N[C@@H](Cc1c[nH]cn1)C(=O)N[C@@H](CO)C(=O)N[C@@H](Cc1ccc(O)cc1)C(N)=O)C(C)C [compound 19] (H-CVLGTCQVQNLSHRLWQLRQESAPVEPSSPHSY-NH2; disulfide 1-6 (inferred); N-terminus assumed)
17	–	CC(C)C[C@H](NC(=O)[C@H](CCC(N)=O)NC(=O)[C@H](Cc1c[nH]c2ccccc12)NC(=O)[C@H](CC(C)C)NC(=O)[C@H](CCCNC(=N)N)NC(=O)[C@H](Cc1c[nH]cn1)NC(=O)[C@H](CO)NC(=O)[C@H](CC(C)C)NC(=O)[C@H](CC(N)=O)NC(=O)[C@H](CCC(N)=O)NC(=O)[C@@H](NC(=O)[C@H](CCC(N)=O)NC(=O)[C@@H]1CSSC[C@H](NC(=O)CN)C(=O)N[C@@H](CO)C(=O)N[C@@H](CC(N)=O)C(=O)N[C@@H](CC(C)C)C(=O)N[C@@H](CO)C(=O)N[C@@H]([C@@H](C)O)C(=O)N1)C(C)C)C(=O)N[C@@H](CCCNC(=N)N)C(=O)N[C@@H](CCC(N)=O)C(=O)N[C@@H](CC(=O)O)C(=O)N[C@@H](CO)C(=O)N[C@@H](C)C(=O)N1CCC[C@H]1C(=O)N[C@H](C(=O)N[C@@H](CCC(=O)O)C(=O)N1CCC[C@H]1C(=O)N[C@@H](CO)C(=O)N[C@@H](CO)C(=O)N1CCC[C@H]1C(=O)N[C@@H](Cc1c[nH]cn1)C(=O)N[C@@H](CO)C(=O)N[C@@H](Cc1ccc(O)cc1)C(N)=O)C(C)C [compound 38] (H-GCSNLSTCQVQNLSHRLWQLRQDSAPVEPSSPHSY-NH2; disulfide 2-8 (inferred); N-terminus assumed)
